Laboratory results taken from BigSolDB 2.1.

O=c1[nH]c2ccccc2n1CCCN1CCC(n2c(=O)[nH]c3cc(Cl)ccc32)CC1
solubility (mole fraction)
Settings	293.15 K	298.15 K	323.15 K	328.15 K	333.15 K
in DMF	–	–	0.000679	0.000791	0.000911
in DMSO	–	–	0.00142	0.00171	0.00209
in isopropanol	1.85e-05	2.29e-05	6.48e-05	7.7e-05	8.99e-05
in water	–	–	6.38e-07	7.73e-07	9.34e-07
